Results from patent US8580790B2, “(Heterocycle/condensed piperidine)-(piperazinyl)-1-alkanone or (heterocycle/condensed pyrrolidine)-(piperazinyl)-1-alkanone derivatives and use thereof as p75 inhibitors” (Sanofi, priority 2009, dated 2013).
Counter-ions that a name gives are not always drawn.

Point of comparison: O=C(CN1CC2CCC(C1)N2c1ncc(F)cn1)N1CCc2nc(-c3ccccc3)oc2C1, melting point 193 °C. Against it:
- O=C(CN1CC2CCC(C1)N2c1ncc(F)cn1)N1CCc2cc(-c3ccccc3)[nH]c2C1 — higher, 240 to 242 °C
- C[C@@H]1CN(c2ccc(C(F)(F)F)cn2)C[C@H](C)N1CC(=O)N1CCc2nn(-c3ccccn3)cc2C1 [compound 118, 2-[(2S,6R)-2,6-dimethyl-4-(5-trifluoromethylpyridin-2-yl)piperazin-1-yl]-1-(2-pyridin-2-yl-2,4,6,7-tetrahydropyrazolo[4,3-c]pyridin-5-yl)ethanone] — lower, 165 to 166 °C
- Cn1cc2c(n1)CCN(C(=O)CN1CC3CCC(C1)N3c1ccc(C(F)(F)F)cn1)C2 — lower, 70 to 71 °C
- O=C(CN1CC2CCC(C1)N2c1ccc(-c2nnn[nH]2)cn1)N1CCc2nc(-c3ccccc3)sc2C1 — higher, 201 to 202 °C
- COc1ccc(-n2ncc3c2CCN(C(=O)CN2CC4CCC(C2)N4c2ncc(F)cn2)C3)cc1 — higher, 194 to 195 °C
- C[C@@H]1CN(CC(=O)N2CCc3nn(-c4ccccc4)cc3C2)[C@@H](C)CN1c1ccc(C(=O)O)cn1 [compound 53, 6-{(2R,5S)-2,5-dimethyl-4-[2-oxo-2-(2-phenyl-2,4,6,7-tetrahydropyrazolo[4,3-c]pyridin-5-yl)ethyl]piperazin-1-yl}nicotinic acid] — lower, 165 to 167 °C
- Cc1nc(-c2ccc(N3C[C@@H](C)N(CC(=O)N4CCc5nn(-c6ccccc6)cc5C4)[C@@H](C)C3)nc2)no1 [compound 89, 2-{(2S,6R)-2,6-dimethyl-4-[5-(5-methyl[1,2,4]oxadiazol-3-yl)-pyridin-2-yl]piperazin-1-yl}-1-(2-phenyl-2,4,6,7-tetrahydropyrazolo[4,3-c]pyridin-5-yl)ethanone] — lower, 163 to 164 °C
- Cc1nc(-c2ccc(N3C4CCC3CN(CC(=O)N3CCc5nc(-c6ccccc6)sc5C3)C4)nc2)no1 — lower, 190 to 192 °C
- Cn1nnc(-c2ccc(N3C4CCC3CN(CC(=O)N3CCc5nn(-c6ccccc6)cc5C3)C4)nc2)n1 — higher, 230 to 231 °C
- C[C@@H]1CN(c2cncnc2)C[C@H](C)N1CC(=O)N1CCc2nc(-c3ccccc3)sc2C1 [compound 22, 2-((2S,6R)-2,6-dimethyl-4-pyrimidin-5-yl-piperazin-1-yl)-1-(2-phenyl-6,7-dihydro-4H-thiazolo[5,4-c]pyridin-5-yl)ethanone] — higher, 215 to 216 °C
- COc1ccc(-c2nc3c(s2)CN(C(=O)CN2CCN(c4ccc(C(F)(F)F)cn4)C(=O)C2)CC3)cc1 [compound 34, 4-{2-[2-(4-methoxyphenyl)-6,7-dihydro-4H-thiazolo[5,4-c]pyridin-5-yl]-2-oxoethyl}-1-(5-trifluoromethylpyridin-2-yl)piperazin-2-one] — not separable, 191 to 193 °C
- COc1ccc(-n2cc3c(n2)CCN(C(=O)CN2CC4CCC(C2)N4c2ncc(F)cn2)C3)cc1 — lower, 186 to 188 °C
- O=C(CN1CC2CCC(C1)N2c1ccc(C(F)(F)F)cn1)N1CCc2nc(-c3ccc(F)cc3)[nH]c2C1 — lower, 148 to 150 °C
- C[C@@H]1CN(c2cccnc2)C[C@H](C)N1CC(=O)N1CCc2nn(-c3ccncc3)cc2C1 [compound 141, 2-((2S,6R)-2,6-dimethyl-4-pyridin-3-ylpiperazin-1-yl)-1-(2-pyridin-4-yl-2,4,6,7-tetrahydropyrazolo[4,3-c]pyridin-5-yl)ethanone] — lower, 163 to 164 °C
- C[C@@H]1CN(CC(=O)N2CCc3nc(-c4ccccc4)sc3C2)[C@@H](C)CN1c1ccc(C#N)cn1 [compound 59, 6-{(2R,5S)-2,5-dimethyl-4-[2-oxo-2-(2-phenyl-6,7-dihydro-4H-thiazolo[5,4-c]pyridin-5-yl)ethyl]piperazin-1-yl}nicotinonitrile] — lower, 159 to 160 °C
- CC(C)(C)n1ncc2c1CCN(C(=O)CN1CC3CCC(C1)N3c1ncc(F)cn1)C2 — lower, 142 to 143 °C
- C[C@@H]1CN(c2cnccn2)C[C@H](C)N1CC(=O)N1CCc2nn(-c3ccc(C(F)(F)F)cn3)cc2C1 [compound 111, 2-((3S,5R)-3,5-dimethyl-2,3,5,6-tetrahydro[1,2′]bipyrazinyl-4-yl)-1-[2-(5-trifluoromethylpyridin-2-yl)-2,4,6,7-tetrahydropyrazolo[4,3-c]pyridin-5-yl]ethanone] — lower, 150 to 151 °C
- O=C(CN1CC2CCC(C1)N2c1cccnc1)N1CCc2nn(-c3ccccc3)cc2C1 — lower, 165 to 168 °C
- COc1ccc(-c2nc3c(s2)CN(C(=O)CN2CC4CCC(C2)N4c2ncc(F)cn2)CC3)cc1 — higher, 203 to 207 °C
- O=C(CN1CC2CCC(C1)N2c1ncc(F)cn1)N1CCc2cc(-c3ccccc3)oc2C1 — lower, 165 to 167 °C
- O=C(O)c1ccc(N2CC3CCC(C2)N3CC(=O)N2CCc3nc(-c4ccccc4)sc3C2)nc1 — higher, 250 to 251 °C
- O=C(CN1CC2CCC(C1)N2c1ncc(F)cn1)N1CCc2nc(-c3ccc(F)cc3)sc2C1 — higher, 196 to 198 °C
- C[C@@H]1CN(c2ccc(C(F)(F)F)cn2)C[C@H](C)N1CC(=O)N1CCc2nn(CC(F)(F)F)cc2C1 (as salt: oxalate) [compound 126, 2-[(2S,6R)-2,6-dimethyl-4-(5-trifluoromethylpyridin-2-yl)piperazin-1-yl]-1-[2-(2,2,2-trifluoroethyl)-2,4,6,7-tetrahydropyrazolo[4,3-c]pyridin-5-yl]ethanone] — lower, 151 to 153 °C
- Cc1noc(-c2ccc(N3C[C@@H](C)N(CC(=O)N4CCc5nn(-c6ccccc6)cc5C4)[C@@H](C)C3)nc2)n1 [compound 91, 2-{(2S,6R)-2,6-dimethyl-4-[5-(3-methyl-[1,2,4]oxadiazol-5-yl)-pyridin-2-yl]piperazin-1-yl}-1-(2-phenyl-2,4,6,7-tetrahydropyrazolo[4,3-c]pyridin-5-yl)ethanone] — lower, 168 to 171 °C
